# Measured values taken from patent publication US20080146555A1, “Uses of Kinase Inhibitors and Compositions Thereof” (GPC Biotech, Inc, priority 2004, published 2008).
# Several values for one entry are separate records, joined by “and”; a condition that tells them apart may be missing. Identical values can stand only once.
# How the values were obtained:
# 1A9 = experiment: SRB cytotoxicity, 1A9 parental cells; assay type: cell-based; conditions: Homo sapiens, 72 h
# Method: (§1) In these experiments, the P-glycoprotein expressing NCI-Adr resistant subline (Vickers et al., 1989. Mol Endocrinology 3 (1):157-164) was used. […] Briefly, cells were plated in 96 well dishes 24 hours prior to compound addition. Where noted, they were exposed to verapamil for 4 hours prior to compound addition and then throughout the treatment period (72 hours). The assay was terminated with the addition of cold TCA to a final concentration of 10% and the plates were incubated for one hour at 4° C. The plates were then washed 5 times with water and 100 μl of a Sulforhodamine B solution (4%) was added to each well. The plate was then incubated for 10 minutes at room temperature before removal of unbound dye by washing with 1% acetic acid.
# (§2) The tubulin mutated, paclitaxel-resistant human ovarian carcinoma cell line 1A9-PTX10 and its parental paclitaxel-sensitive cell line 1A9 were derived from the A2780 human ovarian carcinoma cell line (J Biol Chem (1997) 272, 17118-17124).
# 1A9-PTX10 = experiment: SRB cytotoxicity, tubulin mutated paclitaxel-resistant cells; assay type: cell-based, human; conditions: for IC50: Homo sapiens, 1A9/ptx-10, 72 h, SRB
# Method: as §1, §2
# NCI-Adr resistant = experiment: SRB cytotoxicity, P-glycoprotein expressing cells with and without verapamil; assay type: cell-based; conditions: for IC50: Homo sapiens, NCI/ADR-RES, 72 h, SRB
# Method: as §1
# HT29 = experiment: SRB cytotoxicity, HT29 parental cells; assay type: cell-based; conditions: Homo sapiens, HT-29, 72 h
# Method: as §1
# (§3) The parental non-mutated cell line HT29 was used as a control.
# (§4) Z. Cytotoxicity was measured using the SRB assay according to Shekan et al. as described above in Example 1A.
# HT29/mit = experiment: SRB cytotoxicity, mitoxanthrone resistant cells; assay type: cell-based, human
# Method: as §1, with “acid. The bound dye was solubilized with 10 mM Trizma base and the absorbance read at OD570.” for “acid.”
# as §3, §4
# CDKs = experiment: Kinase panel, CDKs (average/range); assay type: biochemical; conditions: comparison drug; read-out: average IC50 for CDK1, CDK2, and CDK4
# [1] = test system: NCI panel of 60 cell lines; experiment: cells; conditions: Homo sapiens, 60 cell, 48 h, read-out: NCI panel MG-MID (Mean-Graph Mid-point, average IC50 over panel), 48 h, SRB; IC50 <10 nM counted as 10 nM
# Source text: (§5) The evaluation of compounds at the National Cancer Institute in their panel of 60 cell lines provides a wealth of information regarding efficacy in a wide range of tumor types and genetic backgrounds. Included within this panel are cell lines derived from leukemia, melanoma and cancers of the lung, colon, brain, ovary, breast, prostate and kidney. Use of this panel provides a measure of the efficacy of compounds in cells with alterations in many genes that are associated with neoplastic transformation including p53 and Her2/Neu as well as those involved in metabolism and those which confer multi-drug resistance. The data generated in these cell lines with the protocol described below can be used to evaluate the activity of compounds.
# (§6) Cells were grown in RPMI-1640 10% FCS and plated in 96 well micro-titer plates at densities ranging from 5,000 to 40,000 cells/well. The plates were incubated for 24 hours at 37° C., 5% CO2 for 24 hours. Media containing twice the desired final concentration of the compound (5 doses spanning 4 logs) was prepared and 100 μl was added to each well containing 100 μl media plus cells to yield the desired final concentration. The plates were then incubated for an additional 48 hours.
# (§7) The effect of the compound on cellular viability was determined with the Sulforhodamine B (SRB) assay, which measures total protein. Cells were fixed with cold TCA to a final concentration of 10% and incubated at 4° C. for 60 minutes. The supernatant was discarded and the plates were washed five times with water and air-dried. SRB solution at […] in 1% acetic acid was added to each well and the plates were incubated for 10 minutes at room temperature. The plates were washed five times with 1% acetic acid and air-dried. The bound stain was solubilized with 10 mM trizma base and the absorbance was read on a plate reader at […].
# [2] = test system: adriamycin resistant cell line (ADR-res); experiment: NCI panel, adriamycin resistant cell line, SRB assay; assay type: cell-based; conditions: Homo sapiens, 48 h
# Source text: as §5, §6, §7
# HCT-116 cells [3] = experiment: Clonogenic survival assay with HCT-116 cells; assay type: cell-based; conditions: Homo sapiens
# Method: This assay was used to determine the concentration of a compound that results in irreversible loss of viability after a specified period of exposure. Essentially, cells are exposed to compound for a period of […], and are then transferred to compound-free growth medium. After continued incubation in the compound-free medium for a number of days, the number of colonies recovered is counted as an estimate of the number of surviving cells.
# Media (RPMI-1640, 10% FCS, pen/strep) was pre-warmed to 37° C. in a water bath. Cells were incubated and grown at 37° C., 5% CO2. Cells were recovered by trypsinization from sub-confluent plates and counted using a hemocytometer. 1×10^4 cells were plated in 25 mls of media in a 15 cm tissue culture dish. […] were set up for each test compound, and were incubated overnight at 37° C. The compound was diluted into media at 7 concentrations and the media on the cells was replaced with that containing the test compound. Two plates were set up for each concentration of the compound to be tested, as well as two control plates without compound. Plates were incubated as above for […], media was removed and replaced with fresh media, and the plates were incubated an additional 7 days and washed with PBS. Colonies were stained with crystal violet solution (0.4% crystal violet, 20% ethanol) for 5 minutes, washed twice with distilled water, and counted.
# HCT-116 cells [4] = experiment: Calcein AM viability assay, HCT-116; assay type: cell-based; conditions: Homo sapiens
# Method: (§8) The potency of the subject kinase inhibitors, as measured by loss of cellular viability, was determined with the Calcein AM assay (Molecular Probes). Calcein AM is a substrate of intracellular esterases, which is cleaved only in viable cells to generate a fluorescent product that can be quantified with a fluorescent plate reader. The fluorescent signal is proportional to the number of viable cells, and thus loss of signal in response to the exposure of cells to the subject kinase inhibitors correlates with a loss of viability. This assay not only distinguishes cell cycle arrest, in which cells may still by viable, from loss of viability, and is thus well suited for the evaluation of the subject kinase inhibitors. A compound that is a potent cytotoxic agent may cause significant loss of cell viability in such an assay.
# (§9) Cellular IC50's were determined in the human colorectal carcinoma cell line, HCT-116, and the normal human fibroblast, IMR90. Protein adjusted IC50's were also determined in HCT-116. Results of such viability assays are presented in Table 2 (HCT-116 (viability/protein adjusted) and IMR-90). IC50's (μM, non-protein adjusted) for the viability assay against HCT-116 cells are shown for further compounds of the invention in Table 4.
# (§10) HCT-116 or IMR90 cells were recovered from sub-confluent plates by trypsinization and 1,000 or 4,000 cells, respectively, were plated in 24-well dishes and incubated overnight at 37° C., 5% CO2. HCT-116 cells were cultured in RPMI-1640, 10% FCS, and IMR90 cells were cultured in Minimum Essential Medium-alpha, 10% FCS. After overnight incubation to allow adherence, the media was aspirated from each well and replaced with media containing a test compound at a concentration from 0 to 250 nM, spanning a total of 7 doses. The plates were returned to the incubator and cultured for an additional 72 hours (3 days). […] After 72-hours incubation with the test compound, the cells were washed twice with 1×PBS, taking special care to remove all residual buffer.
# (§11) A 5 μM Calcein AM solution was prepared by dissolving a 50 μg aliquot of Calcein (Molecular Probes catalog #C3100) in 50 μl DMSO. After the Calcein had completely dissolved (10 minutes at room temperature), it was diluted into 10 ml PBS. Calcein/PBS (0.5 ml) was added to each well. The plates were incubated for 75 minutes at 37° C. (protected from light) and the fluorescent signal was read on a fluorescent plate reader (excitation 485/20 and emission 530/25).
# [5] = test system: normal human fibroblast, IMR90; experiment: Calcein AM viability assay, IMR90; assay type: cell-based; conditions: IMR-90, Calcein AM, 72 h
# Method: as §8, §9, §10, §11
# [6] = biological target: protein kinase C (mixed isozymes); experiment: Protein kinase C TCA precipitation assay; assay type: biochemical, rat; conditions: Table 3; read-out: PKC IC50
# Method: Enzymes: Cdc2/cyclin B was obtained from commercial sources. Cdk2/his-cyclin Eshort was expressed in Sf9 cells. Cdk2/cyclin A, cdk4/cyclin D1, and cdk6/cyclin D2 were expressed in Sf9 cells. Protein kinase A (catalytic subunit, from bovine heart) and protein kinase C (mixed isozymes from rat brain) were obtained from commercial sources.
# Protein kinase C and protein kinase A were assayed using a TCA precipitation assay with Histone H1 as a substrate. For protein kinase A, the final assay contained 50 mM Tris, 10 mM MgCl2, 1 mM dithiothreitol, pH 7.5, 12 μM adenosine triphosphate, 10% (v/v) dimethylsulfoxide (from compounds), 20 μg Histone H1, 2 μCi [γ-^32P] adenosine triphosphate, 0.2 U protein kinase A in a 100 μL assay. A protein kinase C assay contained 50 mM Tris, 10 mM MgCl2, 1 mM dithiothreitol, 0.8 mM CaCl2, pH 7.5, 5 μM adenosine triphosphate, 10% (v/v) dimethylsulfoxide (from compounds), 20 μg Histone H1, 2 μCi [γ-^32P] adenosine triphosphate, 0.01 U protein kinase C in a 50 μL assay. The assays were started by the addition of enzyme, allowed to react for 10 min at 30° C., and stopped by adding 0.4 volumes of 237 mM disodium ethylenediamine tetraacetate, 105 mM adenosine triphosphate, pH 8.0. […] The filters were washed ten times with 25% (w/v) trichloroacetic acid, and the amount of incorporated [^32P]phosphate was determined by adding 100 μl Microscint and scintillation counting.
# A129 = experiment: SRB cytotoxicity, A129 parental cells; assay type: cell-based, human; conditions: 72 h
# Method: as §1
# The parental non-mutated cell line A129 was used as a control.
# A129 cp80 = experiment: SRB cytotoxicity, cisplatin resistant cells; assay type: cell-based, human
# CEM = experiment: SRB cytotoxicity, CEM parental cells; assay type: cell-based; conditions: Homo sapiens, CCRF-CEM, 72 h
# Method: as §1
# (§12) The Camptothecin resistant CEM/C2 cells were derived from the T lymphoblastoid leukemia cell line CCRF/CEM by selection in the presence of Camptothecin in vitro (Kapoor et al., 1995. Oncology Research 7; 83-95, ATCC).
# (§13) The effects of A37 and B16 were evaluated in the CCRF/CEM and CEM/C2 cells using the same SRB assay as described above, with 72-hour drug exposure.
# CEM/C2 = experiment: SRB cytotoxicity, camptothecin resistant cells; assay type: cell-based, human
# Method: as §1, §12, §13
smiles,measurement,setting,value
"CC(=O)O[C@@]12CO[C@@H]1C[C@H](O)[C@@]1(C)C(=O)[C@H](O)C3=C(C)[C@@H](OC(=O)[C@H](O)[C@@H](NC(=O)OC(C)(C)C)c4ccccc4)C[C@@](O)([C@@H](OC(=O)c4ccccc4)[C@H]21)C3(C)C [Taxotere, N-debenzoyl-N-tert-butoxycarbonyl-10-deacetyl paclitaxel, reference compound]",IC50,1A9,1.75 nM
same,IC50,1A9-PTX10,160 nM
same,IC50,NCI-Adr resistant; verapamil 12.5 μg/ml,36.3 nM
same,IC50,NCI-Adr resistant; without verapamil,3310 nM
"CC(=O)O[C@H]1C(=O)[C@@]2(C)[C@H]([C@H](OC(=O)c3ccccc3)[C@]3(O)C[C@H](OC(=O)[C@H](O)[C@@H](NC(=O)c4ccccc4)c4ccccc4)C(C)=C1C3(C)C)[C@]1(OC(C)=O)CO[C@@H]1C[C@@H]2O [Paclitaxel, reference compound]",IC50,1A9,4 nM
same,IC50,1A9-PTX10,235 nM
same,RR (relative resistance) 1A9-PTX10 vs 1A9,1A9-PTX10; ratio of mean IC50 resistant/sensitive,59
same,IC50,NCI-Adr resistant; verapamil 12.5 μg/ml,39 nM
same,IC50,NCI-Adr resistant; without verapamil,3960 nM
same,RR (relative resistance) NCI-Adr resistant −/+ verapamil,NCI-Adr resistant; ratio of mean IC50,101.5
"O=C1c2c(O)ccc(O)c2C(=O)c2c(NCCNCCO)ccc(NCCNCCO)c21 [Mitoxanthrone, reference compound]",IC50,HT29,1230 nM
same,RR (relative resistance) HT29/mit vs HT29,HT29/mit,153.1
same,IC50,"HT29/mit; Homo sapiens, HT-29, 72 h, SRB",188000 nM
"CN1CC[C@H](c2c(O)cc(O)c3c(=O)cc(-c4ccccc4Cl)oc23)[C@H](O)C1 [Flavopiridol, reference compound]",IC50,CDKs,~650 nM and 650 nM
CC(C)N1CCN(CCOc2ccc(-c3[nH]nc4c3C(=O)c3c(NC(=O)NN5CCOCC5)cccc3-4)cc2)CC1 [E],IC50,[1],< 100 nM
same,IC50,[2],< 1000 nM
same,IC50,"HCT-116 cells [3]; 24 h exposure, read-out: HCT-116 IC50 Clonogenic 24 h",< 100 nM
same,IC50,"HCT-116 cells [3]; 72 h exposure, read-out: HCT-116 IC50 Clonogenic 72 h",< 100 nM
same,IC50,"HCT-116 cells [4]; HCT-116, 72 h, Calcein AM, 72 h, read-out: HCT-116 IC50 Viability",< 100 nM
same,IC50,"HCT-116 cells [4]; HCT-116, plus 1 mg/ml alpha acidic glycoprotein and 45 mg/ml human serum albumin, read-out: HCT-116 IC50 Protein adjusted",< 1000 nM
same,IC50,[5],< 100 nM
same,IC50,[6],< 10000 nM
"N.N.[Cl][Pt][Cl] [Cisplatin, cis-diamminedichloroplatinum (II), reference compound]",IC50,A129,324 nM
same,RR (relative resistance) A129 cp80 vs A129,A129 cp80,51.6
same,IC50,"A129 cp80; 72 h, SRB",16700 nM
"CC[C@@]1(O)C(=O)OCc2c1cc1n(c2=O)Cc2cc3ccccc3nc2-1 [Camptothecin, reference compound]",IC50,CEM,3.5 nM
same,RR (relative resistance) CEM/C2 vs CEM,CEM/C2,1378
same,IC50,"CEM/C2; Homo sapiens, CEM/C2, 72 h, SRB",4820 nM
